For orientation: logP means a log measure of how a compound divides between an organic and an aqueous phase. By logD is commonly meant lipophilicity at a set pH, counting ionised and neutral species.

From the SangsterLogP compilation come the findings set out here.

Molecules are shown by their SMILES.

One data set is described as follows: method code SF, from Hansch, C. & Leo, A. (1987). Log P database [Dataset]. Pomona College Medicinal Chemistry Project.
Details: not given
As to `CCCCN(C)C`, the logP was 1.7.

`N#C/C=C/c1ccccc1` showed a logP of 1.96.

Turning to `CCC(C)c1cnc(CC(C)C)c(=O)n1O` (stereo not given), the logP is 1.81.

`Cc1ccc(Cl)cc1C` gave a logP of 3.82.

`O=S1(=O)N=C(C2CC=CCC2)Nc2ccccc21` (stereo not given): the logP turned out to be 2.05.

With `CC(=O)Nc1cccc(C#N)c1`, the logP was 1.2.

As for `COCC(=O)Nc1ccc(Cl)c(Cl)c1`, the logP worked out at 2.77.

As for `O=C1C(N2CCOCC2)=C(N2CC2)C(=O)C(N2CCOCC2)=C1N1CC1`, the logP amounted to 0.52.

`CN(C)c1cnnc(N(C)C)c1` gave a logP of 0.84.

Compound `Cc1ccc(Nc2ccc(O)c3c2C(=O)c2ccccc2C3=O)cc1` displayed a logP of 3.12.

For the compound `COP(=O)(OC)OC`, the logP was -0.52.

In the case of `Cc1cc(C)cc(OC(=O)CNC(=O)c2ccccc2)c1`, the logP stood at 3.4.

Take `CCCCOC(=O)c1ccc(C(=O)OCCCC)cc1`: the logP was found to be 5.53.

For the compound `O=c1[nH]cc(Cl)c(=O)[nH]1`, the logP was -0.35.

Compound `CCOP(=S)(OCC)Oc1ccc(SC)cc1Cl` showed a logP of 4.4.

With `CCOC(C)OCC`, the logP turned out to be 1.49.

For the compound `O=C(Nc1ccc(Cl)c(Cl)c1)C1CC1`, the logP is 3.83.

On to `C[C@@H]1C[C@@H]([C@H](O)CC2CC(=O)NC(=O)C2)C(=O)[C@@H](C)C1`, for which the logP was 0.55.

Consider `O=C(C(=O)c1ccccc1)c1ccccc1`, for which the logP worked out at 3.38.

For the compound `NC(=O)CBr`, the logP is -0.52.

Compound `C=CCc1ccccc1` displayed a logP of 3.23.

With `CC(=O)c1ccc([C@@H](O)[C@@H](CO)NC(=O)C(Cl)Cl)cc1`, the logP amounted to 0.57.

With `NC(=O)N=[N+]([O-])c1ccccc1`, the logP was 0.58.

For `Cc1ccc2ncccc2c1`, the logP was 2.57.

In the case of `COc1ccc(C(N)=O)cc1/N=N/N(C)C`, the logP worked out at 0.44.

`CNP(=O)(OC)Oc1ccc(OC)cc1` (stereo not given) displayed a logP of 1.06.

The compound `CC1CCCC1` had a logP of 3.37.

`NC(=O)c1ccsc1` displayed a logP of 0.5.

In turn, `COc1cc(C=NO)ccc1OCCO` showed a logP of 0.82.

Turning to `CON(C)C(=O)Nc1ccc2c(c1)Cc1ccccc1-2`, the logP was 3.67.

Take `O=C1CCCCO1`: the logP is -0.35.

`FC(F)Cl` had a logP of 1.08.

Compound `COC(=O)CNC(=O)c1ccc([N+](=O)[O-])cc1` yielded a logP of 0.98.

On to `FC(F)(F)C(F)(F)C(F)(F)C(F)(F)C(F)(F)F`, for which the logP was 4.4.

On to `O=[N+]([O-])c1ccc2[nH]c(C(O)C(O)c3nc4cc([N+](=O)[O-])ccc4[nH]3)nc2c1` (stereo not given), for which the logP came to 1.45.

In turn, `c1ccc(CSc2nnc[nH]2)cc1` returned a logP of 1.45.

In turn, `O=C1CCN(c2ccccc2)N1` gave a logP of 0.89.

Turning to `CC1=NCCN1CCO`, the logP worked out at 0.04.

The compound `Cc1ccc(OC(=O)CNC(=O)c2ccccc2)cc1` gave a log partition coefficient (logP) of 2.83.

`CC(C)c1ccccc1SCc1c(O)c(C(=O)O)cc2ccccc12` showed a logP of 5.06.

For `N#CN=[N+]([O-])c1cccc(Cl)c1`, the logP stood at 2.4.

As for `O=C(Nc1ccccc1)Nc1ccc(Cl)c(Cl)c1`, the logP was found to be 4.7.

In turn, `CC(C)(O)C(F)(F)F` came in with a logP of 1.04.

Compound `COc1ccc2[nH]c(CCCCc3nc4cc(OC)ccc4[nH]3)nc2c1` displayed a logP of 1.42.

With `CC(=O)C(=Cc1cccc(Cl)c1)C(C)=O`, the logP worked out at 2.26.

Turning to `Cc1ccc2[nH]c(CCCCc3nc4cc(C)ccc4[nH]3)nc2c1`, the logP came out at 1.64.

`OC(O)C(Cl)(Cl)Cl` returned a logP of 0.99.

Compound `CN(C)C(=O)Nc1ccc(Br)cc1` came in with a logP of 2.19.

As to `CC(C)(C)c1ccccc1OCC(=O)O`, the logP came to 3.33.

Consider `CS(=O)c1ccccc1` (stereo not given), for which the logP turned out to be 0.55.

Regarding `COc1ccc2[nH]c(C(O)C(O)c3nc4cc(OC)ccc4[nH]3)nc2c1` (stereo not given), the logP stood at 1.05.

In the case of `Clc1ccc2[nH]c(CCCc3nc4cc(Cl)ccc4[nH]3)nc2c1`, the logP amounted to 1.88.

For the compound `Cc1ccccc1C(O)c1ccccc1` (stereo not given), the logP came out at 3.06.

The compound `Cc1ccoc1CN(C)C` had a logP of 1.63.

Consider `Sc1ccccc1`, for which the logP worked out at 2.52.

Consider `CC(C)CO`, for which the log partition coefficient (logP) came out at 0.65.

Turning to `O=c1c2ccccc2ncn1O`, the logP is -0.45.

Take `CC(=O)Oc1cccc(C(F)(F)F)c1`: the logP was determined as 2.63.

The compound `NC(=O)Nc1cccc(NC(N)=O)c1` gave a logP of 0.58.

For `O=c1[nH]c(=O)n([C@H]2C[C@H](O)[C@@H](CO)O2)cc1F`, the logP was -1.16.

With `NC(=O)c1cccc(Br)c1`, the logP was 1.65.

For `COc1cccc(C)c1`, the logP is 2.66.

As for `COc1ccc(C(=O)N(C)C)cc1`, the logP is 0.96.

`COCC1=Nc2cc(Cl)ccc2S(=O)(=O)N1`: the lipophilicity (logP) amounted to 1.12.

Consider `CN(CCO)C1=C(N2CC2)C(=O)C(N(C)CCO)=C(N2CC2)C1=O`, for which the logP was -0.37.

In turn, `CCC(C)=O` returned a logP of 0.5.

For the compound `Cc1ccc(C(=O)c2ccncc2)cc1`, the logP came out at 2.51.

`CCOC(=O)CCc1ccccc1` had a logP of 2.73.

In turn, `[O-][N+](=Cc1c(Cl)cccc1Cl)c1ccccc1` registered a logP of 2.16.

`O=C(/C=C/C(=O)c1ccccc1)c1ccccc1` came in with a logP of 3.16.

Compound `CC(C)(C)c1ccccc1` showed a logP of 4.11.

Compound `CCCCOc1cccc(C=C(C(C)=O)C(=O)OCC)c1` gave a logP of 3.12.

`CC(=O)Nc1ccc(S(C)(=O)=O)cc1` showed a logP of 0.58.

For `CCOc1cn[nH]c1`, the logP amounted to 0.8.

Compound `C=C1C(=O)O[C@@H]2/C=C(\C)CC/C=C(\C)CC[C@@H]12` had a logP of 2.09.

`OCCCc1nc2ccccc2[nH]1` showed a logP of 1.25.

For `O=C(/C=C/c1ccccc1)Nc1ccccc1`, the logP turned out to be 3.61.

For the compound `N#CC(C#N)=C(c1ccccc1)c1ccccc1`, the logP turned out to be 3.55.

Take `NC(=O)/C=C/c1ccccc1`: the logP is 1.42.

`Nc1ccc([N+](=O)[O-])cc1N`: the logP stood at 0.88.

The data set is the same for the next values; noted with them: pH 1.0.
As for `Oc1cc(-c2ccccc2)on1`, the logD turned out to be 2.55.

Compound `N#Cc1c[nH]c(=O)[nH]c1=O` yielded a logD of -0.93.

Staying with this data set, now noted: pH 2.2.
As to `c1ccc(Cc2nn[nH]n2)cc1`, the logD worked out at 1.36.

Staying with this data set, now noted: pH 3.0.
The compound `CC(=O)OCC1=C(C(=O)O)N2C(=O)C(NC(=O)COc3ccccc3)C2SC1` (stereo not given) registered a logD of 0.26.

As for `CSCC1=C(C(=O)O)N2C(=O)C(NC(=O)Cc3cccs3)C2SC1` (stereo not given), the logD came to 1.01.

`Cc1nnc(SCC2=C(C(=O)O)N3C(=O)C(NC(=O)Cc4cccs4)C3SC2)s1` (stereo not given) registered a logD of 0.67.

Still in this data set, the particulars now being: pH 6.4.
`Oc1ccc(Nc2ccccc2)cc1` yielded a logD of 2.82.

Still in this data set, the particulars now being: pH 7.0.
`FC(F)(F)c1ccc2cccnc2c1` registered a logD of 3.02.

The same data set, now with this note: pH 7.4.
Turning to `CC(C)COCC1CNc2nc(N)[nH]c(=O)c2N1` (stereo not given), the logD was determined as 0.45.

`Cc1c(N(C)C)c(=O)n(C)c(=O)n1-c1ccc(Cl)cc1` returned a logD of 2.32.

The data set is the same for the next values; noted with them: pH 8.0.
`Cn1c(N)cc2ccccc21` yielded a logD of 1.72.

Still in this data set, the particulars now being: pH 11.0.
`CC(C)N(Cc1cccnc1)C(C)C` showed a logD of 2.27.

Still in this data set, the particulars now being: pH 12.0.
`CCC[C@@H]1C[C@@H](C(=O)N[C@@H]([C@H]2O[C@H](SCC)[C@H](O)[C@@H](O)[C@H]2O)[C@@H](C)O)N(CC)C1` displayed a logD of 1.91.

As to `CN(C)/N=N/c1ccccc1CO`, the logD turned out to be 1.73.

Staying with this data set, now noted: pH 13.0.
For `NN(c1ccccc1)c1ccccc1`, the logD came to 2.8.
